Test results as given in patent US7282522B2, “Hydroxamic acid derivatives and the method for preparing thereof” (Amorepacific Corporation, priority 2003, dated 2007).

Assays:
RARα = target: T1, RARα (Homo sapiens, UniProt P10276); experiment: RARE-luciferase reporter assay in transfected CV-1 cells (affinity to retinoic acid receptor), RARα; assay type: cell-based; details: treated 24 hours at final concentration 10^−4M, control group 1000
T1 construct: expressed in transfected cells; host or cells: CV-1 cells (ATCC)
T1 sequence (P10276 1-462): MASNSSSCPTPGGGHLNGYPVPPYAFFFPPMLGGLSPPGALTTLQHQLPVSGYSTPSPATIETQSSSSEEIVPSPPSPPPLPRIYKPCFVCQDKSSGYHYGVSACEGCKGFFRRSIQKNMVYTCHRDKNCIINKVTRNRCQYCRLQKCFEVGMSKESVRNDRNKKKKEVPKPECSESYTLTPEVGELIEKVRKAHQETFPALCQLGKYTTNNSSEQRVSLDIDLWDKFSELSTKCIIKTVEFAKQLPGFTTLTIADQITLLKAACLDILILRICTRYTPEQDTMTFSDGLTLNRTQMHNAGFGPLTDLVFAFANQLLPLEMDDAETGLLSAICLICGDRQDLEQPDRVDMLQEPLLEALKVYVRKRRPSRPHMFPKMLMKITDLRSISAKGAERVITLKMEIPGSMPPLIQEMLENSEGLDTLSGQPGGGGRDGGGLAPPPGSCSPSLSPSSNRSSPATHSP
Source text: This example illustrates affinities of hydroxamic acid derivatives obtained in Examples 1 to 55 to retinoic acid receptor, in comparison with retinol and retinoic acid.
(§1) Receptor-expression plasmid, pECE-RARα and pECE-RARγ were engineered by the prior method (Mol. Cell. Biol. 1996, 16, 1138-1149). RARE-tk-Luc, i.e. RARE reporter was obtained by inserting RARE fragment from b-RARE-tk-CAT into pGL3 luciferase basic vector. CV-1 cells were obtained from ATCC (American Type Culture Collection).
CV-1 cells were seeded into 96-well microtiter plate at 5,000 cells per well and cultured in DMEM (Dulbecco's Modified Eagle's Media) supplemented with 2.5% fetal bovine serum. 24 Hours later, the cells were transfected with 10 ng of pECE-RARα, long of pECE-RARγ, 100 ng of reporter plasmid and 100 ng of β-galactosidase-expression vector, using LipofectaminPlus (GIBCO BRL, grand island, N.Y.). 24 Hours post-transfection, the cells were treated for 24 hours with hydroxamic acid derivatives of Examples 1˜55 or retinol at a final concentration of 10^−4M or with retinoic acid at a final concentration of 10^−5M, which is 10 times lower concentration than those of the former.

RARγ = target: T2, RARγ (Homo sapiens, UniProt P13631); experiment: RARE-luciferase reporter assay in transfected CV-1 cells (affinity to retinoic acid receptor), RARγ; assay type: cell-based; details: treated 24 hours at final concentration 10^−4M, control group 5000
T2 construct: expressed in transfected cells; host or cells: CV-1 cells (ATCC)
T2 sequence (P13631 1-454): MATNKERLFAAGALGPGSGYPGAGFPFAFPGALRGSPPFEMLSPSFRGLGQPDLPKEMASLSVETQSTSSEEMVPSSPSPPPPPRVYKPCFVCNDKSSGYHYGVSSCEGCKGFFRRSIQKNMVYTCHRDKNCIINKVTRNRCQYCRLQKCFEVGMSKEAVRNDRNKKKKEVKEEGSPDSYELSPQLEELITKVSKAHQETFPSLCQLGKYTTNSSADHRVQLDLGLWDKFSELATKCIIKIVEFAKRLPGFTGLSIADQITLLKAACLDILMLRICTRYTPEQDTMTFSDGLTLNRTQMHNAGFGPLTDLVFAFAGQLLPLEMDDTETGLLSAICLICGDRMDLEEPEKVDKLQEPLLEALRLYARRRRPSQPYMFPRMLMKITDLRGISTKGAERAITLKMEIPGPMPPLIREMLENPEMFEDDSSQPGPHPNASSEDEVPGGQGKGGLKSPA
Protocol: as §1
CV-1 cells were seeded into 96-well microtiter plate at 5,000 cells per well and cultured in DMEM (Dulbecco's Modified Eagle's Media) supplemented with 2.5% fetal bovine serum. 24 Hours later, the cells were transfected with 10 ng of pECE-RARα, long of pECE-RARγ, 100 ng of reporter plasmid and 100 ng of β-galactosidase-expression vector, using LipofectaminPlus (GIBCO BRL, grand island, N.Y.).

procollagen type I = experiment: Effect on collagen biosynthesis (procollagen type I ELISA) in human fibroblasts; assay type: cell-based; details: 10^−4M, 24 hours, serum-free medium, relative to control group = 100
Protocol: Human fibroblasts were seeded into 24-well plate at 1×10^5 cells per well and then cultured to 90% of growth.
For each supernatant, procollagen production was measured with procollagen type I ELISA kit.

collagenase = experiment: Inhibition of collagenase expression in human fibroblasts (ELISA kit); assay type: cell-based; details: 10^−4M, 24 hours, serum-free medium, relative to control group = 100
Protocol: Human fibroblasts were seeded into 96-well microtiter plate at 5,000 cells per well and then cultured to 90% of growth in DMEM (Dulbecco's Modified Eagle's Media) supplemented with 2.5% fetal bovine serum. Then, the fibroblastes were cultured in serum-free DMEM for 24 hours and treated for 24 hours with 10^−4M of hydroxamic acid derivatives of Examples 1˜55, retinol or retinoic acid in serum-free medium, and then the culture fluid was collected.
(§2) For each culture fluid, collagenase production was measured with collagenase kit (commercialized by AmershamPharmacia Biotech). Firstly, the culture fluid was added to 96-well plate spread with primary collagenase antibody and then antigen-antibody reaction was performed in an incubator for 3 hours. Later, chromophore-conjugated secondary antibody was added to the 96-well plate and then reacted for 15 minutes. Then, color former was added thereto, to induce development at room temperature for 15 minutes. 1M of sulfuric acid was added to stop the reaction. […] The color density depends on the progress of the reaction. The absorbance of the yellow 96-well plate was measured at 405 nm using absorptiometer. Collagenase expression was calculated by the following equation 1. Herein, the absorbance of the culture fluid collected from the medium with no material treated was used as a control. Collagenase expression (%)=(Absorbance of test group with said material treated/Absorbance of control group with no material treated)×100 [Equation 1]
Collagenase expression was evaluated as a relative value, in consideration that the value of control group with no material treated is 100.

elastase = experiment: Inhibition of elastase expression in human fibroblasts (ELISA kit); assay type: cell-based; details: 10^−4M, 24 hours, serum-free medium, relative to control group = 100
Protocol: as §2, with “elastase” for “collagenase”, “Elastase” for “Collagenase”, “2.” for “1.”, “2]” for “1]”
Elastase expression was evaluated as a relative value, in consideration that the value of control group with no material treated is 100.

white guinea pigs = experiment: Phototoxicity test (UVA irradiation); details: for Evaluation (phototoxicity): 1%(w/v) solution, UVA 15 J/cm^2; for Phototoxic index: 50 μl of 1%(w/v) solution, UVA 320~380 nm 15 J/cm^2, observed 24, 48 and 72 hours
Protocol: Test was performed for twenty-five (25) of white guinea pigs whose backs were depilated and fixed. On both sides of the back, six(6) sites of 2 cm×2 cm, three(3) per side were sectioned. Right sites were compared as controls with no irradiation (UV non-irradiation sites) and left sites were irradiated (UV irradiation sites).
30 Minutes later, right sites were shielded with aluminum foil and UVA(320˜380 nm) was irradiated at a distance of about 10 cm therefrom using Waldmann to the final energy of 15 J/cm^2. After 24, 48 and 72 hours elapsed, skin response of guinea pig was observed. […] Evaluation was estimated for each elapsed time, i.e. 24, 48 and 72 hours and maximum scores were selected, to calculate irritation index by the following equation 3. Then, phototoxic index was calculated by the following equation 4. Irritation index=(ΣMaximum of erythema+ΣMaximum of edema)/Number of animals [Equation 3] Phototoxic index=(Irritation index of UV irradiation site)−(Irritation index of UV non-irradiation site) Equation 4]

rabbits = experiment: Primary skin irritation test on animals (Draize P.I.I.); details: depilated back; for P.I.I. (Primary Irritation Index): 0.5 ml of 1% solution in 1,3-butylene glycol:ethanol 7:3, observed 24 or 72 hours later; for Evaluation (skin irritation): 1% solution, according to Draize's P.I.I.
Protocol: Test was performed using fifty-six (56) of healthy male rabbits whose backs were depilated. […] 0.5ml of the test sample solution was applied to the right site of 2.5 cm×2.5 cm region on each of the depilated back. Left site with no sample treated was compared as a control. 24 hours or 72 hours later, skin abnormality such as erythema, crust and edema was observed.
Based on the score of skin response, skin irritation was evaluated according to Draize's P.I.I.(Primary Irritation Index) and compared with retinoic acid.

Compound | Luciferase activity RARα (RARα) | Luciferase activity RARγ (RARγ) | Collagen biosynthesis (%) (procollagen type I) | Collagenase expression (%) (collagenase) | Elastase expression (%) (elastase) | Evaluation (phototoxicity) (white guinea pigs) | Phototoxic index (white guinea pigs) | P.I.I. (Primary Irritation Index) (rabbits) | Evaluation (skin irritation) (rabbits)
CCCCc1ccc(C(=O)N(C)c2ccc(C(=O)NO)cc2)cc1 [Example 18, N-[4-(N-hydroxycarbamoyl)phenyl]-N-methyl-[4-butylphenyl]carboxyamide] | 12900 | 11400 | 130 | 78 | 79 | No phototoxicity (lower value than 0.5, criterion value to be estimated as no phototoxicity) | 0 | 0.321 | No irritation
Cc1ccc(C(=O)N(C)c2ccc(C(=O)NO)cc2)cc1C [Example 20, N-[4-(N-hydroxcarbamoly)phenyl]-N-methyl-[3,4-dimethylphenyl]carboxyamide] | 12200 | 12300 | 122 | 68 | 78 | No phototoxicity (lower value than 0.5, criterion value to be estimated as no phototoxicity) | 0 | 0.421 | No irritation
CN(C(=O)C12CC3CC(CC(C3)C1)C2)c1ccc(C(=O)NO)cc1 [Example 21, N-[4-(N-hydroxycarbamoyl)phenyl]adamantyl-N-methylcarboxyamide] | 12500 | 11200 | 118 | 69 | 78 | No phototoxicity (lower value than 0.5, criterion value to be estimated as no phototoxicity) | 0 | 0.345 | No irritation
CN(O)C(=O)c1ccc(N(C)C(=O)C23CC4CC(CC(C4)C2)C3)cc1 [Example 22, adamantyl-N-[4-(N-hydroxy-N-methylcarbamoyl)phenyl]-N-methylcarboxyamide] | 12100 | 12400 | 120 | 77 | 70 | No phototoxicity (lower value than 0.5, criterion value to be estimated as no phototoxicity) | 0 | 0.350 | No irritation
Cc1ccc(C(=O)Nc2ccc(CC(=O)NO)cc2)cc1 [Example 24, N-[4-(N-hydroxycarbamoylmethyl)phenyl][4-methylphenyl]carboxyamide] | 12100 | 11210 | 121 | 76 | 82 | No phototoxicity (lower value than 0.5, criterion value to be estimated as no phototoxicity) | 0 | 0.321 | No irritation
Cc1cccc(C(=O)Nc2ccc(CC(=O)NO)cc2)c1 [Example 25, N-[4-(N-hydroxycarbamoylmethyl)phenyl][3-methylphenyl]carboxyamide] | 13200 | 12100 | 120 | 70 | 80 | No phototoxicity (lower value than 0.5, criterion value to be estimated as no phototoxicity) | 0 | 0.423 | No irritation
